Laboratory results from US7217821B2, “Photoprotective cosmetic compositions comprising para-aminobenzalmalonate-substituted s-triazine compounds” (L'Oreal, priority 2003, dated 2007).
“And” between values parts separate entries of the source, which are not always exact repeats. Equal entries are not always repeated.

Assays:
[1] = Photostability of a film of oily solution under an Oriel sun simulator, quantified by HPLC; assay type: physicochemical; settings: 5% by weight in Miglyol 812 oil; about 1 mg/cm^2 film; irradiated one hour, UVA=14.2 mW/cm^2, UVB=0.41 mW/cm^2; individual tests
Method: Compared photostabilities between a compound of the prior art and the compound according to the invention of Example 1:
The two products were dissolved at 5% by weight in Miglyol 812 oil. About 10 mg of oily solution are spread over 10 cm^2 onto the surface of a frosted-glass hollow disc; the amount is determined by weighing.
The films of oily solutions are irradiated for one hour using an Oriel sun simulator (UVA=14.2 mW/cm^2; UVB=0.41 mW/cm^2), and then extracted with 10 ml of ethanol containing 10% isopropanol and treated with ultrasound for 5 minutes. The quantifications of the products are performed by HPLC of the extracts.
HPLC conditions: column: UP5WOD-25QS, 250*4.6 mm, 5 μm, Interchrom; eluent: methanol (Comparative Example 1) and 96% methanol+4% water (Example 1); flow rate: 1 ml/minute; injected volume: 10 μl; detection: diode array; rt (minutes): 5.2 (Comparative Example 1) and 14.9 (Example 1).
The degrees of loss are determined by comparison of the amounts of product present in the irradiated samples and in the non-irradiated controls prepared simultaneously and treated in the same manner (average of 3 samples; S=surface area/mg solution): % loss=100*(S0-Sirr)/S0

UV absorption in ethanol = assay type: physicochemical

| % disappearance [1] | UV E1% (UV absorption in ethanol) | UV εmax (UV absorption in ethanol) [M⁻¹ cm⁻¹] | UV λmax (UV absorption in ethanol) [nm] | Compound |
| --- | --- | --- | --- | --- |
| 11% and 10% and 9% |  |  |  | CC(C)COC(=O)C(=Cc1ccc(Nc2nc(Nc3ccc(C=C(C(=O)OCC(C)C)C(=O)OCC(C)C)cc3)nc(Nc3ccc(C=C(C(=O)OCC(C)C)C(=O)OCC(C)C)cc3)n2)cc1)C(=O)OCC(C)C [Compound (prior art), 2,4,6-tris(Diisobutyl 4′-aminobenzalmalonate)-s-triazine, reference compound] |
| 3% and 5% and 4% | 956 | 110000 | 356 | CC(C)(C)COC(=O)C(=Cc1ccc(Nc2nc(Nc3ccc(C=C(C(=O)OCC(C)(C)C)C(=O)OCC(C)(C)C)cc3)nc(Nc3ccc(C=C(C(=O)OCC(C)(C)C)C(=O)OCC(C)(C)C)cc3)n2)cc1)C(=O)OCC(C)(C)C [Example 1, 2,4,6-tris(dineopentyl 4′-aminobenzalmalonate)-s-triazine] |
|  | 922 | 111000 | 353 | CC(C)CC(C)OC(=O)C(=Cc1ccc(Nc2nc(Nc3ccc(C=C(C(=O)OC(C)CC(C)C)C(=O)OC(C)CC(C)C)cc3)nc(Nc3ccc(C=C(C(=O)OC(C)CC(C)C)C(=O)OC(C)CC(C)C)cc3)n2)cc1)C(=O)OC(C)CC(C)C (centres unmarked) [Example 2, 2,4,6-tris(bis(1,3-dimethylbutyl) 4′-aminobenzalmalonate)-s-triazine] |
